Experimental data from US20130324522A1, “INSECT ODORANT RECEPTOR ANTAGONISTS” (THE ROCKEFELLER UNIVERSITY, priority 2010, published 2013).
Like-named read-outs stand apart in the source and are kept apart here.

Key:
Assay type in all cases: cell-based
[1] = target: OR8/OR7 (Anopheles gambiae, UniProt Q7PUT5+Q7QCC7); experiment: Ca2+-imaging of stable HEK293T cell line OR8/OR7; details: for inhibition at 4 µM: HEK-293T, read-out: Percent Inhibition OR8 OR7
Experimental: (§1) Full-length cDNAs for mosquito (Anopheles gambiae) odorant receptor (OR1, OR2, OR7, OR8, OR28), and fly (Drosophila melanogaster) odorant receptor (Or47a, Or83b), mouse TRP channel (TRPM8), and mouse serotonin receptor (5HT3) were obtained and subcloned into mammalian expression vectors. The following mammalian expression vectors were used:
(§2) Stable cell lines OR1/OR7, OR2/OR7, OR8/OR7, OR10/OR7, OR28/OR7 and TRPM8 were generated from HEK293T cells. HEK293T-based cell lines were cultured in DMEM supplemented with these additional antibiotics: 6 μg/mL blasticidin and 1 μg/mL puromycin, with the exception of the TRPM8 cell lines, which was cultured in DMEM supplemented with 1 μg/mL puromycin.
(§3) Cells were trypsinized and split into 35 mm dishes one day before transfection. Confluent cells (60-70%) in 35 mm dishes were transfected with 1 μg of insect OR(X) plasmids in pME18s-bla and 1 μg of OR7-pME18s-puro using lipofectamine 2000. For Anopheles odorant receptors, two plasmids were co-transfected into HEK cells: the ligand-specific receptor (OR1, OR2, OR8, OR28) and the corresponding olfactory co-receptor: OR7. Cell lines containing TRPM8 were transfected with single plasmid.
(§4) Stable cell lines were cultured in 10 cm dishes, and confluent cells (70-80%) were trypsinized. 10,000 cells/20 μL were transferred into each well of 384-well plates coated with poly-D-lysine, and cultured for 2 days. For Flip-In T-Rex cells (cell lines expressing Or47a/Or83b and 5HT3), 5 μL of tetracycline (5 μg/mL) were added 1 day before the assay. 20 μL of Ca-4 dye was loaded into each well for 1.5 hr at room temperature in the dark, and the dye-loaded plates were subjected to Ca^2+-imaging using a Hamamatsu FDSS6000 real time fluorescence plate reader. Odorant solutions (9× final concentration) were prepared by dissolving 1M stock solutions into Hank's Buffered Salt Solution (HBSS), and 30 μL of odor solution was transferred to each well in 384-well plates.
(§5) Compounds ([…] in DMSO) were stored in 384-well plates, and last two columns (32 wells total) contained only DMSO. 200 nL of small compounds were transferred into the odorant plates before the assay using the Perkin-Elmer Janus workstation. The odorant plates were spun down to remove air bubbles, and placed on the FDSS6000 plate loader, and 5 μL of odorant solution was applied to the cell plate on the FDSS6000. Ca^2+ increase was monitored with fluorescence at 525 nm by excitation at 485 nm.

[2] = target: OR10/OR7 (Anopheles gambiae, UniProt B5U0U7+Q7QCC7); experiment: Ca2+-imaging of stable HEK293T cell line OR10/OR7; details: for inhibition at 4 µM: HEK-293T, read-out: Percent Inhibition OR10 OR7; for IC50: Table B, read-out: IC50 OR10
Experimental: as §2
After one day of incubation, the transfected cells were transferred into 10 cm dishes with DMEM containing antibiotics as follows: • 0.5 μg/mL of blasticidin for OR1/OR7, OR2/OR7, OR8/OR7, OR10/OR7, OR28/OR7 • 0.2 μg/mL of puromycin for TRPM8.
as §4, §5

[3] = target: OR28/OR7 (Anopheles gambiae, UniProt A0A1S4GFY3+Q7QCC7); experiment: Ca2+-imaging of stable HEK293T cell line OR28/OR7; details: for inhibition at 4 µM: HEK-293T, read-out: Percent Inhibition OR28 OR7
Experimental: as §1, §2, §3, §4, §5

[4] = target: T1, mOREG (Mus musculus, UniProt Q920P2); experiment: Ca2+-imaging, control receptor mOREG; details: read-out: Percent Inhibition mOREG
T1 sequence (Q920P2 1-313): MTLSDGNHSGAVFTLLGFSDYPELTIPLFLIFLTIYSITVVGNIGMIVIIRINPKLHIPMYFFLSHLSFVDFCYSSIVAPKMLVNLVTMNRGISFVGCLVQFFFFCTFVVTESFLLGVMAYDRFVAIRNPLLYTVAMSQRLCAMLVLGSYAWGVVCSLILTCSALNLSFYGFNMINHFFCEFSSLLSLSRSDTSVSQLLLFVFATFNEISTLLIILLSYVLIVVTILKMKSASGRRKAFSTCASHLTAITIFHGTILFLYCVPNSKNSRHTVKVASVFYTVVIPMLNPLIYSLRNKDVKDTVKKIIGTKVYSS
Experimental: as §4, with “plates. The last two columns of the plate (32 wells total) were used as control wells as follows: • negative control with HBSS buffer (16 wells) • positive control with ligands (16 wells).” for “plates.”
as §5

[5] = target: T2, TRP channel (TRPM8) (Mus musculus, UniProt Q8R4D5); experiment: Ca2+-imaging of stable HEK293T cell line TRPM8; details: for inhibition at 4 µM: HEK-293T, read-out: Percent Inhibition TRPM8
T2 construct: Full-length cDNAs for mosquito (Anopheles gambiae) odorant receptor (OR1, OR2, OR7, OR8, OR28), and fly (Drosophila melanogaster) odorant receptor (Or47a, Or83b), mouse TRP channel (TRPM8); expressed in transfected cells
Experimental: as §1, §2, §3, §4, §5

Chain of OR28/OR7 (A0A1S4GFY3 entry or part of it): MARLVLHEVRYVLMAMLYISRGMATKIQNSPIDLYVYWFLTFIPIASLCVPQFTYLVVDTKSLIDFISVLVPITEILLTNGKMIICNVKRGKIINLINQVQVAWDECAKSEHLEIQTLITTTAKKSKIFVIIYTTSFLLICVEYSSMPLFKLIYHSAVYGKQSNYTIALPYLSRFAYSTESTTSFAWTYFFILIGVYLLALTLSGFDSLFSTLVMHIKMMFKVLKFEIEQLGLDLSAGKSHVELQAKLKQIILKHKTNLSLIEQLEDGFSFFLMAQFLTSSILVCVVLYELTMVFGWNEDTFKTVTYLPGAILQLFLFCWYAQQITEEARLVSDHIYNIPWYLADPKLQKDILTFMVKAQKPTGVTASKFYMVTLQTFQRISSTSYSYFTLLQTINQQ
Chain of OR28/OR7 (Q7QCC7 whole entry): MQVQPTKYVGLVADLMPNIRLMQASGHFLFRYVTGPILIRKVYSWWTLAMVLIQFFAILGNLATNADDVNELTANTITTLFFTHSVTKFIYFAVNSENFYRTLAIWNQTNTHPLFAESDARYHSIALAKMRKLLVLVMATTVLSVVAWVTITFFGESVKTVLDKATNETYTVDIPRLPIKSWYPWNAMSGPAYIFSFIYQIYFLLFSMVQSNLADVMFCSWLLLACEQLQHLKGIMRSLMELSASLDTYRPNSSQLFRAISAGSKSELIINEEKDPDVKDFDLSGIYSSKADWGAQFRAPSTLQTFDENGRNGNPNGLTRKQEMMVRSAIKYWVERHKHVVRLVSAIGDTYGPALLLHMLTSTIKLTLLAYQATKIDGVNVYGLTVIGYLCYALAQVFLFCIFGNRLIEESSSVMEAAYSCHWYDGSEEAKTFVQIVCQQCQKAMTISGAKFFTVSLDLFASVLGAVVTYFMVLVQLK
Chain of OR10/OR7 (Q7QCC7 whole entry): as above
Chain of OR10/OR7 (B5U0U7 entry or part of it): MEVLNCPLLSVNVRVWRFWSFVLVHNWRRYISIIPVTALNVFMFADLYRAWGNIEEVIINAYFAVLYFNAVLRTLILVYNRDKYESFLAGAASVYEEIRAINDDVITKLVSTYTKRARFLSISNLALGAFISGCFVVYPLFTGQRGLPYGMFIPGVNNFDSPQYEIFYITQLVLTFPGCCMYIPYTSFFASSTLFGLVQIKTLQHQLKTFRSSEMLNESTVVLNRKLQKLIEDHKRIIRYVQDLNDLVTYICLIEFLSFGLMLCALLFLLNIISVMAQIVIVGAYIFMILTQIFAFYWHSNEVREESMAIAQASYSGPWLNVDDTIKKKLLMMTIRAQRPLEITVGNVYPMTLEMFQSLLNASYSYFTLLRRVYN
Chain of OR8/OR7 (Q7QCC7 whole entry): as the sequence (Q7QCC7 whole entry) above
Chain of OR8/OR7 (Q7PUT5 entry or part of it): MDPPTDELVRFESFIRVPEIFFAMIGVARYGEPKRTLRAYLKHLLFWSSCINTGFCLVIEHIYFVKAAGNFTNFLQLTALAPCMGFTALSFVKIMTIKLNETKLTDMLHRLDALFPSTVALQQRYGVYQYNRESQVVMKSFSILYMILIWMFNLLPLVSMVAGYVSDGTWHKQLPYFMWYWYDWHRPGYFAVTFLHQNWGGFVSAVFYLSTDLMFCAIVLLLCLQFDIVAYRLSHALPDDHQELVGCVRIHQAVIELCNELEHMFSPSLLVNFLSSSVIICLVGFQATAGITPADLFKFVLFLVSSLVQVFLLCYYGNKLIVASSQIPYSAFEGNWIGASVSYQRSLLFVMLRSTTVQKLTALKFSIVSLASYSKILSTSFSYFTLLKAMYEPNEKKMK
T2 sequence (Q8R4D5 whole entry): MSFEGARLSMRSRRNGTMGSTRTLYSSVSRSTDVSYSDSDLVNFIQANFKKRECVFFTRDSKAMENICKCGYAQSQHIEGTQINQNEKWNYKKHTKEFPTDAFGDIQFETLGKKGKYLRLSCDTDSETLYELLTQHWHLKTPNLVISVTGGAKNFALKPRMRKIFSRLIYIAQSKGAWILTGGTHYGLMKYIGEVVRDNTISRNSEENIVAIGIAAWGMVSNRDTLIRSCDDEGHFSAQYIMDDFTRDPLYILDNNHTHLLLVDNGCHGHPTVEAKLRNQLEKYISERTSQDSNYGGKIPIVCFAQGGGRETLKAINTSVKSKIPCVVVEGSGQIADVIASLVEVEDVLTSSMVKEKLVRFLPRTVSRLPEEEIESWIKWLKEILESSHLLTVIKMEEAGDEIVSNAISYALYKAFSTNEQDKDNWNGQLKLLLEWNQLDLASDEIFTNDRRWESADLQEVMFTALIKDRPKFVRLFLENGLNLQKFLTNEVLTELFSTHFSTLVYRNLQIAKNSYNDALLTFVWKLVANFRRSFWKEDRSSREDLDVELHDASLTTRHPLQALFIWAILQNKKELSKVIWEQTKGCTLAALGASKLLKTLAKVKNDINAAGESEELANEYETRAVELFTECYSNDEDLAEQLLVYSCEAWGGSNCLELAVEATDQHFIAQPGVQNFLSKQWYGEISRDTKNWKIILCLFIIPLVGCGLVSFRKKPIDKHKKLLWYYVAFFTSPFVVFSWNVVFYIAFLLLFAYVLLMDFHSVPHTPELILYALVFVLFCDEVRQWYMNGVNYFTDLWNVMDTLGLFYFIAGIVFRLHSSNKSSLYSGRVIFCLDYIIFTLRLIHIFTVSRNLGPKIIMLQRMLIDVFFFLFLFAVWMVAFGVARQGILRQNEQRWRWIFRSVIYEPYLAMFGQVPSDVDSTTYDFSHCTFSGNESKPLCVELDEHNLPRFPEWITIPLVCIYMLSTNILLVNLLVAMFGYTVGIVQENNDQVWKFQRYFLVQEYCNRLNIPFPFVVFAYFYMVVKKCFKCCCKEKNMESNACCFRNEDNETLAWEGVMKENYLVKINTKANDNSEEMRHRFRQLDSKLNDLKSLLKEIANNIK

Compound	inhibition at 4 µM ([1]; compound applied at 4 μM)	inhibition at 4 µM ([2]; compound applied at 4 μM)	IC50 [2]	inhibition at 4 µM ([3]; compound applied at 4 μM)	IC50 ([3]; Table B, read-out: IC50 OR28)	inhibition at 4 µM ([4]; compound applied at 4 μM)	inhibition at 4 µM ([5]; compound applied at 4 μM)	IC50 ([1]; Table B, read-out: IC50 OR8)	IC50 ([5]; Table B, read-out: IC50 TRPM8)	inhibition at 4 µM [1]	inhibition at 4 µM [2]	IC50 [3]	inhibition at 4 µM [3]	inhibition at 4 µM [4]	inhibition at 4 µM [5]
CC(=O)OCC(=O)NCC1Cc2cc(Oc3ccccc3)ccc2O1 (stereo not shown) [RU-0079120]	< 25%	> 75%	< 100 nM	> 75%	< 100 nM	< 25%	< 25%								
O=C(C1CCC1)N(Cc1ccco1)Cc1nccn1Cc1ccccc1Cl [RU-0048066]	< 25%	51 to 74%	< 100 nM	> 75%	< 100 nM	< 25%	< 25%								
COCCNC(=O)c1ccc(CSc2nnc(-c3ccc(C)cc3)n2-c2ccccc2C)cc1 [RU-0053556]	26 to 50%	51 to 74%	> 1000 nM	> 75%	100 to 1000 nM	26 to 50%	26 to 50%								
CCc1cc(N2CCCC2)nc(SCc2ccc(C(=O)N3CCOCC3)o2)n1 [RU-0047568]	26 to 50%	> 75%	< 100 nM	> 75%	< 100 nM	26 to 50%	26 to 50%								
CCOC(=O)c1c(NC(C)=O)c(-c2ccc(OC)cc2)cn1Cc1ccccc1 [RU-0077733]	< 25%	26 to 50%		51 to 74%	< 100 nM	< 25%	< 25%								
Cc1ccccc1C(=O)N[C@@H]1CCCCC1NC(=O)C1CCN(C(=O)C23CC4CC(CC(C4)C2)C3)CC1 (stereo partly shown) [RU-0045351]	< 25%	< 25%		> 75%	< 100 nM	26 to 50%	< 25%								
O=C(c1ccco1)N(Cc1nccn1Cc1ccccc1Cl)CC1CC1 [RU-0047281]	> 75%	> 75%		> 75%	< 100 nM	26 to 50%	51 to 74%	> 1000 nM	> 1000 nM						
COc1ccc(-n2c(Cc3ccccc3)nnc2SCCCC(=O)N2CCN(C(=O)c3ccc(C(F)(F)F)cc3)C(C)C2)cc1 (stereo not shown) [RU-0071828]	< 25%	26 to 50%	> 1000 nM	> 75%	< 100 nM	26 to 50%	< 25%								
CC(C)CN(Cc1nccn1Cc1ccc(Cl)cc1Cl)C(=O)c1ccccc1F [RU-0055322]	< 25%	51 to 74%	< 100 nM	> 75%	< 100 nM	26 to 50%	< 25%								
O=C(Cc1cccc(F)c1)N1CCOC(COCc2c(Cl)cccc2Cl)C1 (stereo not shown) [RU-0050398]	< 25%	< 25%		> 75%	100 to 1000 nM	< 25%	< 25%								
CCN(CC)C(=O)Oc1ccc2c(ccn2Cc2cccc(C)c2)c1NC(=O)CCCCC(=O)OC [RU-0075445]										< 25%	< 25%	< 100 nM	> 75%	< 25%	< 25%
COCCN(Cc1c(-c2ccccc2)noc1N1CCSCC1)CC(O)COCc1ccco1 (stereo not shown) [RU-0037278]	26 to 50%	26 to 50%		> 75%	< 100 nM	26 to 50%	< 25%								
COc1ccc(-c2cc(-c3ccccc3)n(C(=O)CN3CCN(Cc4ccccc4)CC3)n2)cc1 [RU-0038795]	< 25%	< 25%		> 75%	< 100 nM	26 to 50%	< 25%								
Fc1ccccc1/C=N/Nc1nc(N2CCCCC2)nc(N2CCOCC2)n1 [RU-0018338]	< 25%	26 to 50%		51 to 74%	< 100 nM	26 to 50%	26 to 50%								
N#Cc1ccccc1C(=O)N1CCOC(COCc2c(Cl)cccc2Cl)C1 (stereo not shown) [RU-0050405]	26 to 50%	26 to 50%	> 1000 nM	> 75%	< 100 nM	< 25%	< 25%								
O=C(c1ccco1)N(Cc1nccn1Cc1c(F)cccc1Cl)C1CC1 [RU-0048046]	< 25%	51 to 74%	< 100 nM	> 75%	< 100 nM	< 25%	< 25%								
